We go through eight compounds from ChEMBL document CHEMBL1124036 (J Med Chem, 1988).

Assay [1] concerns Vaccinia virus. The experiment in a line: Virus rating on vaccinia virus measured as the degree of inhibition of virus induced cytopathogenic effect in L929 cells. The class given is functional, Orthopoxvirus vaccinia. On the technique in general: Damage to the host cells serves as the signal in cytopathic effect assays.
Assay [2] relates to Vaccinia virus. In words: The minimum inhibitory concentration required for 50% inhibition of vaccinia virus induced cytopathogenic effect in L929 cells; G indicates CPE reduction <50%. The class given is functional, organism-based. To be noted: Orthopoxvirus vaccinia.

In assay [1], `[N-]=[N+]=N[C@H]1C(n2cnc3c(N)nc(F)nc32)O[C@H](CO)[C@@H]1O` (some centres undefined) displayed a Virus rating of 2.4.

`Nc1nc(Cl)nc2c1ncn2C1O[C@H](CO)[C@H](O)[C@H]1I` (some centres undefined) came in with a Virus rating in assay [1] of 0.

Regarding `Nc1nc(Cl)nc2c1ncn2C1O[C@H](CO)[C@H](O)[C@H]1Br` (some centres undefined), the Virus rating in assay [1] is on record as 0.4.

In turn, `[N-]=[N+]=N[C@H]1C(n2cnc3c(N)nc(Cl)nc32)O[C@H](CO)[C@@H]1O` (some centres undefined) showed a Virus rating in assay [1] of 0.8.

In turn, `Nc1nc(F)nc2c1ncn2C1O[C@H](CO)[C@H](O)[C@H]1N` (some centres undefined) showed a Virus rating in assay [1] of 0.7.

`Nc1nc(F)nc2c1ncn2C1O[C@H](CO)[C@H](O)[C@H]1Cl` (some centres undefined): the Virus rating in assay [1] was found to be 0.6.

`Nc1nc(Cl)nc2c1ncn2C1O[C@H](CO)[C@H](O)[C@H]1Cl` (some centres undefined) showed a Virus rating in assay [1] of 0.7.

Take `Nc1nc(Cl)nc2c1ncn2C1O[C@H](CO)[C@H](O)[C@H]1N` (some centres undefined): the MIC50 result in assay [2] is “CPE reduction <50%”. Further, in assay [1], the Virus rating stood at 0.6.
